From patent US10844049B2, “GLP-1R agonists and uses thereof” (QILU REGOR THERAPEUTICS INC., priority 2018, dated 2020) come the findings set out here.

Usually EC50 stands for the concentration at which the effect is half-maximal.

GLP1R, sequence (P43220 24-463): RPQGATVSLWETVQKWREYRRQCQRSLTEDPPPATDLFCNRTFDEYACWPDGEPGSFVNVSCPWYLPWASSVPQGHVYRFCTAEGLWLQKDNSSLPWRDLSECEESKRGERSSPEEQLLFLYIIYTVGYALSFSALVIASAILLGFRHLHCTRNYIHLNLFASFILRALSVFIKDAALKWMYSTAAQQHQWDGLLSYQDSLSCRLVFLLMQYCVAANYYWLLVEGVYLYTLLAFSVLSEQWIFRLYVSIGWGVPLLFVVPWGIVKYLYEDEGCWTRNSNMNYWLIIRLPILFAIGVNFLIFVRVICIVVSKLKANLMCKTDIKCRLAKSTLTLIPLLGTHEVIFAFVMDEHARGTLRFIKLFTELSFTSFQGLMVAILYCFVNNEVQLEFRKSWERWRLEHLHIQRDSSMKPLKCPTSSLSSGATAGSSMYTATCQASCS

This assay addresses GLP1R (Homo sapiens, UniProt P43220). In words: GLP1R cAMP HTRF assay, HEK293/GLP-1R/CRE/Luc (HEK293T cells). As to conditions: read-out: EC50. The assay is classed as cell-based. A digest of the protocol:
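cAMP accumulation via HTRF after 30 min, 37 °C exposure of 1000 receptor-expressing cells/well to compound (0.5% DMSO final) in IBMX (500 μM)/0.1% BSA DPBS.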
(In general: In TR-FRET formats the signal depends on donor and acceptor labels being close together.)
On to `O=C(O)c1ccc2nc(CN3CC=C(c4cccc(OCc5ccc6c(c5)OCO6)n4)CC3)n(C[C@@H]3CCO3)c2c1` [Compound 152], for which the EC50 was at most 15 nM. The value for `O=C(O)c1ccc2nc(CN3CC=C(c4cccc(OCc5ccc6c(c5)OC(F)(F)O6)n4)CC3)n(C[C@@H]3CCO3)c2c1` [Compound 153, (S)-2-((6-((2,2-difluorobenzo[d][1,3]dioxol-5-yl)methoxy)-3′,6′-dihydro-[2,4′-bipyridin]-1′(2′H)-yl)methyl)-1-(oxetan-2-ylmethyl)-1H-benzo[d]imidazole-6-carboxylic acid] was at most 15 nM. The result for `O=C(O)c1ccc2nc(CN3CC=C(c4cccc(OCc5ccc(-n6ccnc6)cc5)n4)CC3)n(C[C@@H]3CCO3)c2c1` [Compound 154, (S)-2-((6-((4-(1H-imidazol-1-yl)benzyl)oxy)-3′,6′-dihydro-[2,4′-bipyridin]-1′(2′H)-yl)methyl)-1-(oxetan-2-ylmethyl)-1H-benzo[d]imidazole-6-carboxylic acid] reads at most 15 nM; that for `O=C(O)c1ccc2nc(CN3CC=C(c4cccc(OCc5ccccc5F)n4)CC3)n(C[C@@H]3CCO3)c2c1` [Compound 155, (S)-2-((6-((2-fluorobenzyl)oxy)-3′,6′-dihydro-[2H′-bipyridin]-1′(2′H)-yl)methyl)-1-(oxetan-2-ylmethyl)-1H-benzo[d]imidazole-6-carboxylic acid], at most 15 nM.

With `O=C(O)c1ccc2nc(CN3CC=C(c4cccc(OCc5cccc(F)c5)n4)CC3)n(C[C@@H]3CCO3)c2c1` [Compound 156, (S)-2-((6-((3-fluorobenzyl)oxy)-3′,6′-dihydro-[2,4′-bipyridin]-1′(2′H)-yl)methyl)-1-(oxetan-2-ylmethyl)-1H-benzo[d]imidazole-6-carboxylic add], the EC50 was at most 150 nM. The result for `O=C(O)c1ccc2nc(CN3CC=C(c4cccc(OCc5ccc(F)cc5)n4)CC3)n(C[C@@H]3CCO3)c2c1` [Compound 157, (S)-2-((6-((4-fluorobenzyl)oxy)-3′,6′-dihydro-[2H′-bipyridin]-1′(2′H)-yl)methyl)-1-(oxetan-2-ylmethyl)-1H-benzo[d]imidazole-6-carboxylic acid] reads at most 15 nM.

As to `O=C(O)c1ccc2nc(CN3CC=C(c4cccc(OCc5cccnc5)n4)CC3)n(C[C@@H]3CCO3)c2c1` [Compound 158], the EC50 was at most 150 nM. Consider `O=C(O)c1ccc2nc(CN3CC=C(c4cccc(OCc5ccccn5)n4)CC3)n(C[C@@H]3CCO3)c2c1` [Compound 159, (S)-1-(oxetan-2-ylmethyl)-2-((6-(pyridin-2-ylmethoxy)-5′,6′-dihydro-[2,4′-bipyridin]-1′(2′H)-yl)methyl)-1H-benzo[d]imidazole-6-carboxylic acid], for which the EC50 was at most 150 nM. The result for `O=C(O)c1ccc2nc(CN3CC=C(c4cccc(OCc5ccncc5)n4)CC3)n(C[C@@H]3CCO3)c2c1` [Compound 160, (S)-1-(oxetan-2-ylmethyl)-2-((6-(pyridin-4-ylmethoxy)-5′,6′-dihydro-[2H′-bipyridin]-1′(2′H)-yl)methyl)-1H-benzo[d]imidazole-6-carboxylic acid] reads at most 150 nM; that for `Cc1ncccc1COc1cccc(C2=CCN(Cc3nc4ccc(C(=O)O)cc4n3C[C@@H]3CCO3)CC2)n1` [Compound 161, (S)-2-((6-((2-methylpyridin-3-yl)methoxy)-3′,6′-dihydro-[2,4′-bipyridin]-1′(2′ H)-yl)methyl)-1-(oxetan-2-ylmethyl)-1H-benzo[d]imidazole-6-carboxylic acid], at most 150 nM. The result for `O=C(O)c1ccc2nc(CN3CC=C(c4cccc(OCc5ccnc(Cl)c5)n4)CC3)n(C[C@@H]3CCO3)c2c1` [Compound 162, (S)-2-((6-((2-chloropyridin-4-yl)methoxy)-3′,6′-dihydro-[2,4′-bipyridin]-1′(2′H)-yl)methyl)-1-(oxetan-2-ylmethyl)-1H-benzo[d]imidazole-6-carboxylic acid] reads at most 150 nM; that for `O=C(O)c1ccc2nc(CN3CC=C(c4cccc(OCc5cccnc5Cl)n4)CC3)n(C[C@@H]3CCO3)c2c1` [Compound 163], at most 15 nM; that for `O=C(O)c1ccc2nc(CN3CC=C(c4cccc(OCc5ncc(Cl)cn5)n4)CC3)n(C[C@@H]3CCO3)c2c1` [Compound 164, (S)-2-((6-((5-chloropyrimidin-2-yl)methoxy)-3′,6′-dihydro-[2H′-bipyridin]-1′(2′H)-yl)methyl)-1-(oxetan-2-ylmethyl)-1H-benzo[d]imidazole-6-carboxylic acid], at most 150 nM. The result for `O=C(O)c1ccc2nc(CN3CC=C(c4cccc(OCc5cnccn5)n4)CC3)n(C[C@@H]3CCO3)c2c1` [Compound 165, (S)-1-(oxetan-2-ylmethyl)-2-((6-(pyrazin-2-ylmethoxy)-3′,6′-dihydro-[2,4′-bipyridin]-1′(2′H)-yl)methyl)-1H-benzo[d]imidazole-6-carboxylic acid] reads at most 1000 nM. Consider `CCOc1ccc(COc2cccc(C3=CCN(Cc4nc5ccc(C(=O)O)cc5n4C[C@@H]4CCO4)CC3)n2)cc1OC` [Compound 166, (S)-2((6-((4-ethoxy-3-methoxybenzyl)oxy)-3′,6′-dihydro-[2,4′-bipyridin]-1′(2′H)-yl)methyl)-1-(oxetan-2-ylmethyl)-1H-benzo[d]imidazole-6-carboxylic acid], for which the EC50 is at most 150 nM.

Turning to `O=C(O)c1ccc2nc(CN3CCN(c4ncnc(OCc5ccc(Cl)cc5F)n4)CC3)n(C[C@@H]3CCO3)c2c1` [Compound 167, (S)-2-((4-(4-((4-chloro-2-fluorobenzyl)oxy)-1,3,5-triazin-2-yl)piperazin-1-yl)methyl)-1-(oxetan-2-ylmethyl)-1H-benzo[d]imidazole-6-carboxylic acid], the EC50 is at most 150 nM. Turning to `O=C(O)c1ccc2nc(CN3CC(=O)N(c4cccc(OCc5ccc(Cl)cc5F)n4)CC3=O)n(C[C@@H]3CCO3)c2c1` [Compound 168, (S)-2-((4-(6-(4-chloro-2-fluorobenzyloxy)pyridin-2-yl)-2,5-dioxopiperazin-1-yl)methyl)-1-(oxetan-2-ylmethyl)-1H-benzo[d]imidazole-6-carboxylic acid], the EC50 is at most 15 nM.

Turning to `O=C(O)c1ccc2nc(CN3CC=C(c4cccc(OCc5ccc(Cl)cc5F)n4)CC3)n(C[C@@H]3CCO3)c2n1` [Compound 169, (S)-2-((6-((4-chloro-2-fluorobenzyl)oxy)-3′,6′-dihydro-[2,4′-bipyridin]-1′(2′H)-yl)methyl)-3-(oxetan-2-ylmethyl)-3H-imidazo[4,5-b]pyridine-5-carboxylic acid], the EC50 is at most 15 nM. The value for `O=C(O)c1cc2c(cn1)nc(CN1CC=C(c3cccc(OCc4ccc(Cl)cc4F)n3)CC1)n2C[C@@H]1CCO1` [Compound 170, (S)-2-((G-((4-chloro-2-fluorobenzyl)oxy)-3′,6′-dihydro-[2H′-bipyridin]-1 (2′H)-yl)methyl)-1-(oxetan-2-ylmethyl)-1H-imidazo[4,5-c]pyridine-6-carboxylic acid] was at most 15 nM; that for `O=C(O)c1ccc2nc(CN3CC=C(c4cccc(OCc5ccc(Cl)cc5F)n4)CC3)n(C[C@@H]3CCO3)c2c1F` [Compound 171, (S)-2-((6-((4-chloro-2-fluorobenzyl)oxy)-3′,6′-dihydro-[2,4′-bipyridin]-1′(2′H)-yl)methyl)-7-fluoro-1-(oxetan-2-ylmethyl)-1H-benzo[d]imidazole-6-carboxylic acid] was at most 15 nM.

On to `O=C(O)c1cc2c(cc1F)nc(CN1CC=C(c3cccc(OCc4ccc(Cl)cc4F)n3)CC1)n2C[C@@H]1CCO1` [Compound 172, (S)-2-((6-((4-chloro-2-fluorobenzyl)oxy)-3′,6′-dihydro-[2H′-bipyridin]-1′(2′H)-yl)methyl)-5-fluoro-1-(oxetan-2-ylmethyl)-1H-benzo[d]imidazole-6-carboxylic acid], for which the EC50 is at most 15 nM. The value for `O=C(NS(=O)(=O)C(F)(F)F)c1ccc2nc(CN3CC=C(c4cccc(OCc5ccc(Cl)cc5F)n4)CC3)n(C[C@@H]3CCO3)c2c1` [Compound 173, (S)-2-((6-((4-chloro-2-fluorobenzyl)oxy)-3′,6′-dihydro-[2,4′-bipyridin]-1′(2′H)-yl)methyl)-1-(oxetan-2-ylmethyl)-N-((trifluoromethyl)sulfonyl)-1H-benzo[d]imidazole-6-carboxamide] was at most 1000 nM; that for `O=C(NO)c1ccc2nc(CN3CC=C(c4cccc(OCc5ccc(Cl)cc5F)n4)CC3)n(C[C@@H]3CCO3)c2c1` [Compound 174, (S)-2-((6-((4-chloro-2-fluorobenzyl)oxy)-5′,6′-dihydro-[2,4′-bipyridin]-1′(2′H)-yl)methyl)-N-hydroxy-1-(oxetan-2-ylmethyl)-1H-benzo[d]imidazole-6-carboxamide] was at most 15 nM. The result for `N#Cc1ccc(COc2cccc(C3=CCN(Cc4nc5ccc(C(=O)O)cc5n4C[C@@H]4CCO4)CC3)c2)c(F)c1` [Compound 175, (S)-2-((4-(3-((4-cyano-2-fluorobenzyl)oxy)phenyl)-3,6-dihydropyridin-1(2H)-yl)methyl)-1-(oxetan-2-ylmethyl)-1H-benzo[d]imidazole-6-carboxylic acid] reads at most 15 nM; that for `N#Cc1ccc(COc2ccnc(C3=CCN(Cc4nc5ccc(C(=O)O)cc5n4C[C@@H]4CCO4)CC3)n2)c(F)c1` [Compound 176, (S)-2-((4-(4-((4-cyano-2-fluorobenzyl)oxy)pyrimidin-2-yl)-3,6-dihydropyridin-1(2H)-yl)methyl)-1-(oxetan-2-ylmethyl)-1H-benzo[d]imidazole-6-carboxylic add], at most 15 nM; that for `N#Cc1ccc(COc2nccc(C3=CCN(Cc4nc5ccc(C(=O)O)cc5n4C[C@@H]4CCO4)CC3)n2)c(F)c1` [Compound 177, (S)-2-((4-(2-((4-cyano-2-fluorobenzyl)oxy)pyrimidin-4-yl)-5,6-dihydropyridin-1(2H)-yl)methyl)-1-(oxetan-2-ylmethyl)-1H-benzo[d]imidazole-6-carboxylic add], at most 15 nM. For the compound `O=C(O)c1ccc2nc(CN3CCN(c4cccc(OCc5ccc(Cl)cc5F)c4)CC3)n(C[C@@H]3CCO3)c2c1` [Compound 178, (S)-2-((4-(3-((4-chloro-2-fluorobenzyl)oxy)phenyl)piperazin-1-yl)methyl)-1-(oxetan-2-ylmethyl)-1H-benzo[d]imidazole-6-carboxylic add], the EC50 is at most 15 nM.
